# Data taken from US5968526A, “T cell epitopes of the major allergens from Dermatophagoides (house dust mite)” (Immulogic Pharamaceutical Corporation, priority 1995, dated 1999).
# Legend:
# [1] = tested on: T cell lines primed in vitro to Der p II; assay: secondary proliferation of Der p II-primed T cell lines (Examples VIII, X, XI); type: cell-based, human; details: Der p II primed; 26 positive experiments; FIG. 12
# Protocol: Experiments similar to those of Example V were performed to determine the T cell-reactive areas of the Der p II protein. For example, PBMC from house dust mite-allergic patient 348 were isolated as described in Example V and were stimulated in vitro with 20 μg/ml purified native Der p II.
# The above procedure was followed with a number of patients except in individual cases, T cell lines were primed with recombinant Der p II at 20 μg/ml or at 3 μg/ml and x-irradiated (3500 Rads) autologous PBMC were used as antigen-presenting cells. The data was analyzed as described in Example V, except the ranked sum of peptide responses was analyzed assigning a value of 3, 2 or 1 to the three highest S.I. responses.
# A study similar to that described in Example VII was carried out to determine the T cell cross-reactivity of the Der p II and Der f II proteins. T cells primed with the Der f II protein were challenged with various Der f II peptides and a set of substantially matching Der p II peptides.
# Another experiment following the procedure described in Example VIII analyzed the response of 29 patients primed in vitro to the Der p II protein and challenged with selected peptides derived from the Der p II sequence.
# [2] = tested on: T cell lines primed in vitro to Der f II; assay: secondary proliferation of Der f II-primed T cell lines (Examples IX, X, XI); type: cell-based, human; details: for T cell reactivity: overlapping Der f II peptides, 10 positive experiments, FIG. 10; for T cell response: patient 384, recombinant Der f II primed, data not shown
# Protocol: Experiments similar to those of Example V were performed to determine the T cell-reactive areas of the Der f II protein. For example, PBMC from house dust mite-allergic patient 384 were stimulated in vitro with purified recombinant Der f II and the T cell line was then challenged in the presence of x-irradiated (25,000 Rads) autologous Epstein-Barr virus transformed B cells as antigen presenting cells with various overlapping […]. The results of this proliferation assay indicate that T cells from this particular patient respond well to peptides DF II-1, DF II-2, DF II-3.1, DF II-4.5, DF II-15, DF II-16, and DF I-19.1 (data not shown).
# The above procedure was followed with 10 patients, except in individual cases, T cell lines were primed by stimulating the patient PBMC with 20 μg/ml or 3 μg/ml purified native Der f II, and were assayed in the presence of x-irradiated (3500 Rads) autologous PBMC as antigen-presentingcells.
# A study similar to that described in Example VII was carried out to determine the T cell cross-reactivity of the Der p II and Der f II proteins. T cells primed with the Der f II protein were challenged with various Der f II peptides and a set of substantially matching Der p II peptides. […]
# [3] = tested on: T cell lines primed in vitro with Der p I; assay: T cell proliferation with fine map and modified Group I peptides (Example XIV); type: cell-based, human; details: for T cell response, Group I peptides: FIGS. 31a-b
# Protocol: Long term T cell lines were established by stimulation of 2×10^6 PBL/ml in bulk cultures of complete medium (RPMI-1640, 2 mM L-glutamine, 100 U/ml penicillin/streptomycin, 5×10^-5 M 2-mercaptoethanol, and 10 mM HEPES supplemented with 5% heat inactivated human AB serum) with 30 μg/ml of purified native Der p I or Der p II for 5-6 days at 37° C. in a humidified 5% CO2 incubator to select for house dust mite protein allergen reactive T cells. This amount of priming antigen was determined to be optimal for the activation of T cells from house dust mite allergic patients. Viable cells were purified by LSM centrifugation and cultured in complete medium supplemented with 5 units recombinant human IL-2/ml and 5 units recombinant human IL-4/ml for up to three weeks until the cells no longer responded to lymphokines and were considered "rested". The ability of the T cells to proliferate to selected peptides, purified Der p I or Der p II, or positive (PHA) controls or negative controls (medium only) was then assessed. For assay, 2×10^4 rested cells were restimulated in the presence of 2×10^4 autologous Epstein-Barr virus (EBV)-transformed B cells (prepared as described below) (gamma-irradiated with 25,000 RADS) or with 5×10^4 autologous PBMs (gamma-irradiated with 3500 RADS), with 2-50 μg/ml of purified native Der p I or Der p II in a volume of 200 μl complete medium in duplicate or triplicate wells in 96-well round bottom plates for 3 days. Each well then received 1 μCi tritiated thymidine for 16-20 hours. The counts incorporated were collected onto glass fiber filter mats and processed for liquid scintillation counting. […] The titrations were used to optimize the dose of peptides in T cell assays.
# The maximum response in a titration of each peptide is expressed as the stimulation index (S.I.). The S.I. is the counts per minute (CPM) incorporated by cells in response to peptide, divided by the CPM incorporated by cells in medium only. […] The positive results were used in calculating mean stimulation indices for each peptide for the individual patient tested.
# The above procedure was followed with 18 patients in the studies using peptides derived from Der p I and Der f I (FIGS. 31a-b), and 21 patients in the studies with Der p II peptides (FIGS. 32a-b). Individual patient results were used in calculating the mean S.I. for each peptide if the patient responded to the Der p I or Der p II protein at an S.I. of 2.0 or greater and the patient responded to at least one peptide derived from a house dust mite allergen at an S.I. f 2.0 or greater. A summary of positive experiments from the patients tested is shown in FIGS. 32a and 32b and FIGS. 33a and 33b. The bars represent the positivity index. […] In parenthesis above each bar are the mean stimulation indices for each peptide or protein for the group of patients tested.
# Autologous EBV-transformed cell lines were γ-irradiated with 25,000 Rad and used as antigen presenting cells in secondary proliferation assays and secondary bulk stimulations. These EBV-transformed cell lines were made by incubating 5×10^6 PBL with 1 ml of B-59/8 Marmoset cell line (ATCC CRL1612, American Type Culture Collection, Rockville, Md.) conditioned medium in the presence of 1 μg/ml phorbol 12-myristate 13-acetate (PMA) at 37° C. for 60 minutes in 12×75 mm polypropylene round-bottom Falcon snap cap tubes (Becton Dickinson Labware, Lincoln Park, N.J.). These cells were then diluted to 1.25×10^6 cells/ml in RPMI-1640 as described above except supplemented with 10% heat-inactivated fetal bovine serum and cultured in 200 μl aliquots in flat bottom culture plates until visible colonies were detected. They were then transferred to larger wells until the cell lines were established.
# [4] = tested on: PBMC from mite-allergic patient; assay: primary T cell (PBMC) proliferation, mite-allergic patient, tritiated thymidine; type: cell-based, human; details: medium 1071 ± 30
# Protocol: Peripheral blood mononuclear cells (PBMC) were purified by Ficoll-Hypaque centrifugation of a peripheral blood specimen from mite-allergic patient and were assayed for proliferation in response to various antigens, i.e., affinity-purified Der p I, affinity purified Der p II, various Der p I and Der p II peptides. For assay, 5×10^4 PBMC were cultured in triplicate microwells for 7 days at 37° C. in the presence of various concentrations of antigen in 200 μl RPMI-1640 containing 5% human AB serum. Each well then received 1 μCi tritiated thymidine for 16 hours. The counts incorporated were collected onto glass fiber filters and processed for liquid scintillation counting. […] The CPM +/- standard deviation are shown. The stimulation index of each response (S.I.) is the ratio of the ^3 H-thymidine CPM incorporated by the cells in response to antigen divided by the ^3 H-thymidine CPM incorporated by cells in medium only. […] Thus, these peptides contain Der p I or Der p II T cell epitopes recognized by T cells from this particular allergic patient.
# [5] = tested on: T cell lines primed in vitro to Der p I; assay: secondary proliferation of Der p I-primed T cell lines (Examples V, VII, XI); type: cell-based, human; details: overlapping Der p I peptides; 33 positive experiments
# Procedure, shortened: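 PBMC were primed with native or recombinant Der p I (10 or 20 μg/ml) for 7 days, then expanded with IL-2 and IL-4. Resting T cells (2×10^4) were cultured 3 days with irradiated autologous EBV-B cells or PBMC and titrated protein or peptides, then pulsed 16 h with 1 μCi ³H-thymidine. S.I. was peak-response CPM over medium-only CPM, with S.I. ≥2.0 scored positive.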
# [6] = tested on: T cell lines primed in vitro to Der f I; assay: secondary proliferation of Der f I-primed T cell lines (Examples VI, VII, XI); type: cell-based, human; details: Der f I primed; 8 positive experiments; FIG. 8
# Protocol: Experiments similar to those of Example V were performed to determine. the T cell-reactive areas of the Der f I protein. For example, PBMC from house dust mite-allergic patient 783 were isolated as described in Example V and were stimulated in vitro-- with recombinant purified Der f I at 20 μg/ml. The results of the proliferation assay with Der f I peptides using x-irradiated (3500 Rads) autologous PBMC as antigen presenting cells indicate that T cells from this patient respond to the peptides DF I-8.1, DF I-9, DF I-6, DF I-10, DF I-2.1, DF I-3, DF I-11, DF I-5, DF I-1, and DF I-17 (data not shown).
# The above procedure was followed in a number of patients except in individual cases, T cell lines were primed with affinity purified Der f I at 20 μg/ml or at 10 μg/ml and x-irradiated (25,000 Rads) autologous Epstein-Barr virus transformed B cells were used as antigen presenting cells. […]
# Similarly, the procedure described in Example VI was followed with T cell lines from 9 patients primed in vitro to the Der f I protein then analyzed for response to selected peptides derived from the protein. The data was analyzed as described in Example VI. […]
# human IgE = assay: direct binding ELISA of IgE to mite allergen proteins and peptides; details: plasma of 19 mite-allergic patients and pool of 18; Example XV
# Protocol: The coating antigens were removed and the wells are blocked with 0.5% gelatin in PBS, 300 μl/well for 2 hours at room temperature. Pooled human plasma (a mix of plasma samples from 20 patients that were skin test positive for commerical mite extract) was serially diluted with PBS-Tween 20 (PBS with 0.05% nonionic detergent Tween-20 Sigma, St. Louis, Mo.) and 100 μl/well a.backslash.was added and incubated overnight at 4° C. (plasma dilutions were tested in duplicate). The second antibody (biotinylated goat anti-Human IgE, 1:1000, Kirkegaard & Perry Laboratories Inc, Gaithersburg, Md.), was added at 100 μl/well for one hour at room temperature. This solution was removed and streptavidin-HRPO, 1:10000, (Southern Biotechnology Associates, Inc., Birmingham, Ala.) was then added at 100 μl/well for one hour at room temperature (all wells are washed three times with PBS-Tween between each incubation step). TMB Membrane Peroxidase Substrate system (Kirkegaard & Perry Laboratories) was freshly miced, and added at […]. The color was allowed to develop for 2-5 minutes. The reaction was stopped by the addition of […] of 1M phosphoric acid. Plates were read on a Microplate IL310 Autoreader (Biotech Instruments, Winooski, Vt.) with a 450 nm filter. The absorbance levels of duplicate wells were averaged. The order of coating antigens listed vertically in these figure legends corresponds in orDer from left to right to the coating antigens listed for each histogram.
# The antigen preparation that was used as a positive control was a mixture of the four major biochemically purified mite allergens (term PMA for Purified Mite Allergen); Der f I, Der f II, Der p I and Der p II. The stock was generated at a concentration of 100 μgs of each protein per millimeter or 400 μgs total protein/ml. This preparation was used on each coated ELISA plate.
Substance,T cell response to Der f II peptides [1],T cell reactivity [2],T cell response [2],also measured
DF II-1: Der f II peptide (DQVDVKDCANNEIKKVMVDG),respond significantly,significant areas of T cell reactivity,respond well,–
DF II-3.1: Der f II peptide (HRGKPFTLEALFDANQNTK),–,–,respond well,–
DF II-4.5: Der f II peptide (TLEALFDANQNTKTAKIEIKASLDG),respond significantly,significant areas of T cell reactivity,respond well,–
DF II-13.1: Der f II peptide (HGSDPCIIHRGKPFTLEALFDANQNTKTA),–,significant areas of T cell reactivity,–,–
DF II-15: Der f II peptide (KIEIKASLDGLEIDVPGIDTNACHFMK),respond significantly,significant areas of T cell reactivity,respond well,–
DF II-16: Der f II peptide (LEIDVPGIDTNACHFMKCPLVKGQQY),–,–,respond well,–
DF II-17: Der f II peptide (CPLVKGQQYDAKYTWNVPKIAPKSENV),respond significantly,significant areas of T cell reactivity,–,–
DP I-2: Der p I peptide (EIDLRQMRTVTPIRMQGGCGSCWAFSG),–,–,–,"T cell response, Group I peptides [3]: positive response; CPM ± S.D. ([4]; 10 μg/ml): 1395 ± 47 CPM; CPM ± S.D. ([4]; 30 μg/ml): 1283 ± 34 CPM; CPM ± S.D. ([4]; 100 μg/ml): 1486 ± 38 CPM; T cell reactivity [5]: significant regions of T cell reactivity"
DP I-4: Der p I peptide (VAATESAYLAHRNQSLDLAEQ),–,–,–,"T cell response, Group I peptides [3]: positive response; T cell response to Der p I peptides [6]: respond significantly; T cell reactivity [5]: significant regions of T cell reactivity"
DP I-23.35: modified Der p I peptide (DEKEGVVQESYYRYVAREQSCRRPNADKE),–,–,–,"positive T cell responses, modified peptides ([3]; 18 T cell lines, affinity purified Der p I primed, FIG. 31a): all eighteen T cell lines responded positively; T cell response, Group I peptides [3]: positive T cell studies; IgE binding (ELISA), modified peptides (human IgE): No plasma samples contained IgE"
DP II-25.2: Der p II peptide (TVKVLGDDGVLASAIATHAKIRD),–,–,–,"ranked sum of peptide responses ([2]; FIG. 18b, preferred Der p II peptides): highest ranked sum"
